Results published in patent US12268694B2, “Combination pharmaceutical agents as RSV inhibitors” (Enanta Pharmaceuticals, Inc., priority 2017, dated 2025).
Where two headings read alike, the source gives them in different places.

What was measured:
[1] = test system: genotype A, "Long" strain RSV; assay: RSV-A assay: CPE protection in HEp-2 cells, ATPlite readout; format: cell-based, human respiratory syncytial virus
Summary of the method: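 EC50 derives from ATPlite luminescence after 5-day culture of RSV Long-infected (MOI 0.1) HEp-2 cells, seeded 8,000/well, exposed to duplicate 2-fold compound series. CC50 comes from an identical plate receiving medium instead of virus.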

HEp-2 cells = assay: Cytotoxicity in parallel to the RSV-A assay (no virus), ATPlite readout; format: cell-based, human
Procedure: Following extensive parameter testing, the final assay is run as follows: HEp-2 cells are seeded into the inner 60 wells of a 96-well plate at 8,000 cells per well in a volume of 50 μL using Growth Media (DMEM without phenol red, 1% L-Glut, 1% Penn/Strep, 1% nonessential amino acids, 10% heat-inactivated FBS). 2-fold serial dilutions of control and test compounds are added to the wells in duplicate in a total volume of 25 μL. Viral stock is then added to the wells at a multiplicity of infection (MOI) of 0.1 in a volume of 25 μL, bringing the total volume of each well to 100 μL. The MOI is calculated using the PFU/mL, or TCID50 if unavailable. Each 96-well plate has a control column of 6 wells with cells and virus but no compound (negative control, max CPE), a column with cells but no compound or virus (positive control, minimum CPE), and a column with no cells or virus or compound (background plate/reagent control). The control wells with cells but no virus are given an additional 25 μL of growth media containing an equal quantity of sucrose as those wells receiving the viral stock in order to keep consistent in media and volume conditions. The outer wells of the plate are filled with 125 μL of moat media (DMEM, 1% Penn/Strep) to act as a thermal and evaporative moat around the test wells. Following a 5-day incubation period, the plates are read using ATPlite (50 μL added per well), which quantifies the amount of ATP (a measure of cell health) present in each well. Assay plates are read using the Envision luminometer. In parallel, cytotoxicity is examined on an additional 96-well plate treated in an identical manner, but substituting the 25 μL of viral stock for 25 μL of growth media. […] EC50 ranges are as follows: A <0.4 μM; B 0.4-0.8 μM; C >0.8 μM and CC50 ranges are as follows: A >50 μM; B 10-50 μM; C <10 μM.

[2] = human respiratory syncytial virus, HEp-2, read-out: Human RSV-A (“Long” strain) EC50

O=C1Nc2ccccc2C(c2ccccc2)=NC1Nc1nnc(-c2ccc(OC(F)(F)F)cc2)o1 (stereo not drawn) [Example 30]
EC50 [1, 2]: > 800 nM | CC50 (HEp-2 cells): > 50 µM

O=C1Nc2ccccc2C(c2ccccc2)=NC1Nc1nnc(-c2ccccc2F)o1 (stereo not drawn) [Example 6]
EC50 [1, 2]: > 800 nM | CC50 (HEp-2 cells): > 50 µM

O=C1Nc2ccccc2C(c2ccccc2)=NC1Nc1nnc(C2CCOCC2)o1 (stereo not drawn) [Example 21]
EC50 [1, 2]: > 800 nM | CC50 (HEp-2 cells): > 50 µM

CC(C)Oc1cccc(-c2nnc(NC3N=C(c4ccccc4)c4ccccc4NC3=O)o2)c1 (stereo not drawn) [Example 15]
EC50 [1, 2]: 400 to 800 nM | CC50 (HEp-2 cells): > 50 µM

O=C1Nc2ccccc2C(c2ccccc2)=NC1Nc1nnc(-c2cncnc2)o1 (stereo not drawn) [Example 60]
EC50 [1, 2]: > 800 nM | CC50 (HEp-2 cells): > 50 µM

Cn1cc(-c2nnc(NC3N=C(c4ccccc4)c4ccccc4NC3=O)o2)cn1 (stereo not drawn) [Example 66]
EC50 [1, 2]: 400 to 800 nM | CC50 (HEp-2 cells): > 50 µM

CN1CCC(c2nnc(NC3N=C(c4ccccc4)c4ccccc4NC3=O)o2)CC1 (stereo not drawn) [Example 46]
EC50 [1, 2]: > 800 nM | CC50 (HEp-2 cells): > 50 µM

O=C1Nc2ccccc2C(c2ccccc2)=NC1Nc1nnc(C2CC2)o1 (stereo not drawn) [Example 5]
EC50 [1, 2]: > 800 nM | CC50 (HEp-2 cells): > 50 µM

O=C1Nc2ccccc2C(c2ccccc2)=NC1Nc1nc2c(F)cccc2o1 (stereo not drawn) [Example 105]
EC50 [1, 2]: > 800 nM | CC50 (HEp-2 cells): > 50 µM

O=C1Nc2ccccc2C(c2ccccc2)=NC1Nc1nnc(-c2nccs2)o1 (stereo not drawn) [Example 69]
EC50 [1, 2]: > 800 nM | CC50 (HEp-2 cells): > 50 µM

O=C1Nc2ccccc2C(c2ccccc2)=NC1Nc1nnc(-c2cccc3ccccc23)o1 (stereo not drawn) [Example 17]
EC50 [1, 2]: > 800 nM | CC50 (HEp-2 cells): > 50 µM

O=C1Nc2ccccc2C(c2ccccc2)=NC1Nc1nnco1 (stereo not drawn) [Example 79]
EC50 [1, 2]: > 800 nM | CC50 (HEp-2 cells): > 50 µM

N#Cc1ccc(-c2nnc(NC3N=C(c4ccccc4)c4ccccc4NC3=O)o2)cc1F (stereo not drawn) [Example 33]
EC50 [1, 2]: > 800 nM | CC50 (HEp-2 cells): > 50 µM

O=C1Nc2ccccc2C(c2ccccc2)=NC1Nc1nnc(-c2ccc(F)cc2)s1 (stereo not drawn) [Example 80]
EC50 [1, 2]: > 800 nM | CC50 (HEp-2 cells): > 50 µM

O=C1Nc2ccccc2C(c2ccccc2)=N[C@@H]1Nc1nnc(-c2ccco2)o1 [Example 10a]
EC50 [1, 2]: 400 to 800 nM | CC50 (HEp-2 cells): > 50 µM

COc1cc(-c2nnc(NC3N=C(c4ccccc4)c4ccccc4NC3=O)o2)ccc1F (stereo not drawn) [Example 14]
EC50 [1, 2]: < 400 nM | CC50 (HEp-2 cells): 10 to 50 µM

O=C1Nc2ccccc2C(c2ccccc2)=NC1Nc1nnc(Cc2ccccc2)o1 (stereo not drawn) [Example 22]
EC50 [1, 2]: > 800 nM | CC50 (HEp-2 cells): > 50 µM

O=C1Nc2ccccc2C(c2ccccc2)=NC1Nc1nnc(-c2cccc(F)c2)o1 (stereo not drawn) [Example 3]
EC50 [1, 2]: > 800 nM | CC50 (HEp-2 cells): > 50 µM

O=C1Nc2ccccc2C(c2ccccc2)=NC1Nc1cccn(Cc2ccccc2)c1=O (stereo not drawn) [Example 97]
EC50 [1, 2]: > 800 nM | CC50 (HEp-2 cells): > 50 µM

O=C1Nc2ccccc2C(c2ccccc2)=NC1Nc1cc(N2CCOCC2)ncn1 (stereo not drawn) [Example 93]
EC50 [1, 2]: > 800 nM | CC50 (HEp-2 cells): 10 to 50 µM

CC(=O)N1CCC(c2nnc(NC3N=C(c4ccccc4)c4ccccc4NC3=O)o2)CC1 (stereo not drawn) [Example 47]
EC50 [1, 2]: > 800 nM | CC50 (HEp-2 cells): > 50 µM

COc1ccc(-c2nnc(NC3N=C(c4ccccc4)c4ccccc4NC3=O)o2)cn1 (stereo not drawn) [Example 54]
EC50 [1, 2]: < 400 nM | CC50 (HEp-2 cells): > 50 µM

O=C1Nc2ccccc2C(c2ccccc2)=NC1Nc1nnc(-c2ccc(F)cn2)o1 (stereo not drawn) [Example 23]
EC50 [1, 2]: > 800 nM | CC50 (HEp-2 cells): > 50 µM

Cn1cnc(-c2nnc(NC3N=C(c4ccccc4)c4ccccc4NC3=O)o2)c1 (stereo not drawn) [Example 68]
EC50 [1, 2]: > 800 nM | CC50 (HEp-2 cells): > 50 µM

COc1ccc(-c2nnc(NC3N=C(c4ccccc4)c4ccccc4NC3=O)o2)cc1 (stereo not drawn) [Example 8]
EC50 [1, 2]: > 800 nM | CC50 (HEp-2 cells): > 50 µM

O=C1Nc2ccccc2C(c2ccccc2)=NC1Nc1nc(-c2ccccc2)no1 (stereo not drawn) [Example 89]
EC50 ([1]; HEp-2 cells, RSV-A Long strain, ATPlite readout, read-out: Human RSV-A (“Long” strain) EC50): > 800 nM | CC50 (HEp-2 cells): 10 to 50 µM

O=C1Nc2ccccc2C(c2ccccc2)=NC1Nc1nnc(-c2ccc(Cl)o2)o1 (stereo not drawn) [Example 20]
EC50 [1, 2]: > 800 nM | CC50 (HEp-2 cells): > 50 µM

O=C1Nc2ccccc2C(c2ccccc2)=NC1Nc1cc(Oc2ccccc2)ncn1 (stereo not drawn) [Example 94]
EC50 [1, 2]: > 800 nM | CC50 (HEp-2 cells): 10 to 50 µM

O=C1Nc2ccccc2C(c2ccccc2)=NC1Nc1nnc([C@H]2COCCN2)o1 (stereo partly drawn) [Example 49]
EC50 [1, 2]: > 800 nM | CC50 (HEp-2 cells): > 50 µM

Cc1nnc(NC2N=C(c3ccccc3)c3ccccc3NC2=O)o1 (stereo not drawn) [Example 18]
EC50 [1, 2]: > 800 nM | CC50 (HEp-2 cells): > 50 µM
